According to patent US12661329B2, “Methods of generating oligodendrocytes” (Hadasit Medical Research Services and Development Ltd., priority 2019, dated 2026):

What was measured:
[1] = test system: hESC-derived pre-OLs (MBP reporter cells); experiment: Maturation of MBP-Tomato reporter pre-OLs under normoxia or after 48 h hypoxia (in vitro white matter injury model); type: cell-based, human; conditions: for proportion of MBP+ Tomato+ mature oligodendrocytes: noggin 100 ng/ml, DAPT 1 μM; for proportion of MBP Tomato co-expressing oligodendrocytes: PD0325901 0.25 μM alone or combined, vs vehicle (FIG. 13)
Method: (§1) Human ESCs (HES1 passages 21 to 42 with a normal karyotype) were cultured as described. hESC colonies were picked up by means of collagenase IV (1 mg/ml; GIBCO-BRL, Gaithersburg, MD) and placed into ultralow adherent culture dishes (Thermo Scientific Nunc HydroCell) to favor sphere aggregation. Spheres were cultured in NDM media consisting of Neural Differentiation Medium (Gibco) and N2B27 supplements with 20 ng/ml FGF-2. Spheres were first patterned with the dual-SMAD inhibitors LDN193189 (1 μM, Cayman Chemical, Ann Arbor, MI) and SB431542 (5 μM, SB; PeproTech Inc, Rocky Hill, NJ) until day 4 when SB431542 was withdrawn and the spheres were further cultured for additional 10 days in the presence LDN193189 and FGF-2. At day 14, the spheres were caudalized and ventralized using 0.1 μM all-trans retinoic acid and 0.5 μM purmorphamine, respectively (PeproTech Inc, Rocky Hill, NJ). At day 35, spheres were switched to modified SATO media, consisting of DMEM/F12, 10 ng/ml biotin, 60 ng/ml progesterone, 16 μg/ml putrescine, 20 μg/ml human insulin, 100 μg/ml apotransferrin, 5 ng/ml sodium selenite, 100 μg/ml bovine serum albumin (BSA), 60 μg/ml N-acetyl cysteine and 2 μg/ml forskolin. The medium was further supplemented with 20 ng/ml FGF-2, 0.5 μM Purmorphamine, 5 ng/ml NT3 and 200 nM ascorbic acid. Media was changed every 3 days for 6-7 weeks. For differentiation, spheres were dissected into small clusters mechanically and plated onto poly-D-lysine/laminin-coated plates and cultured in modified SATO media supplemented with 5 ng/ml NT3, 10 ng/ml IGF-1, 60 ng/ml T3, 100 ng/ml noggin and 200 nM ascorbic acid for 2-4 weeks.
To block Notch signaling, the γ-secretase inhibitor, DAPT (N—[N-(3,5-difluorphenacetyl)-L-alanyl]-S-phenylglycine t-butyl ester), PeproTech Inc, Rocky Hill, NJ) was added freshly every other day to the cells to a concentration of 1 μM. To block MEK/ERK signaling, PD0325901 (PeproTech Inc, Rocky Hill, NJ) was added freshly every other day to the cells to a concentration of 0.25-0.5 μM.
Immunocytochemistry: Cells were fixed in 4% paraformaldehyde for 20 min, washed with PBS, blocked in blocking solution (5% donkey serum, 0.2% Triton X-100 in PBS) for 1 hour, and incubated for 2 hours with primary antibodies mouse anti-Olig2 (Millipore Corporation diluted 1:150) and mouse anti-Nkx-2.2 (Developmental Studies Hybridoma Bank, diluted 1:100). After washing, cells were incubated with secondary antibody, donkey anti-mouse Alexa-488 (Life Technologies, Inc.), for 1 hour before being mounted in VECTASHIELD™ mounting medium. For O4 staining, cells were blocked in blocking solution (5% donkey serum in DMEM/F12) for 1 hour, and incubated with mouse-anti O4 antibody (R&D System, diluted 1:100) for 2 hours. After washing, cells were fixed in 4% paraformaldehyde for 20 min, and incubated with secondary antibody, donkey anti-mouse Alexa-488 or Alexa-555 (Life Technologies, Inc.), for 1 hour before being mounted in VECTASHIELD™ mounting medium. For MBP staining, after fixation cells were washed with PBS+0.01% saponin, blocked in blocking solution (5% goat serum, 0.01% saponin in DMEM/F12) for 1 hour, and incubated with rat anti-MBP antibody (R&D System 1:100) for 2 hours. After washing, cells were incubated with secondary antibody, goat anti-rat antibody (Jackson laboratories, 1:100) for 1 hour before being mounted in VECTASHIELD™ mounting medium.
Plasmid construction and gene targeting: Oligonucleotide encoding the MBP-targeting sgRNA was custom ordered (hy.labs), hybridized and ligated into the BbsI restriction site of pX330-U6-Chimeric-BB-CBh-hSpCas9 vector (Addgene #42230). Homology arms from the human mbp locus were amplified from genomic DNA isolated from HES1 cells by nested PCR (5′ arm: Chr18:74692386-74693344, 3′ arm: Chr18:74691209-74692367). The PCR products was digested and ligated into PNTKV-2A-Tomato donor plasmid. Correct construction of each expression cassette was verified by sequence analysis. […]

[2] = test system: MEK-ERK signalling; conditions: mouse; earlier stage of differentiation of the oligodendroglial lineage; cited from earlier work
[3] = test system: EAE mice; experiment: ICV delivery in chronic EAE, Biozzi mouse model of Multiple Sclerosis; type: in vivo, Biozzi ABH mice; conditions: ICV mini-osmotic pump, 5 μg per day, vs vehicle-treated EAE mice
Excerpt: The Biozzi mouse model of Multiple Sclerosis: Biozzi ABH mice have genetic tendency to develop autoimmune diseases, and are used for many autoimmune models. The experimental autoimmune model in Biozzi mice is induced by immunization with spinal cord homogenate. Typically, mice develop an acute relapse, followed by remission, and after that a relapsing and progressive course of disease, resembling human multiple sclerosis (MS). […] In the chronic phase of EAE there are typical immunopathological features resembling progressive MS, such as meningeal infiltrates and development of tertiary lymphoid-like tissue, partial closing of the blood-brain-barrier, and reduction in lesion activity with increase in astrogliosis. Therefore, this model is considered one of the most clinical-relevant experimental models of MS. EAE was induced in Biozzi mice. Briefly, mice were inoculated subcutaneously at day 0 and day 7 in both hind flanks with 1 mg spinal cord homogenate emulsified in complete Freund's adjuvant supplemented with 3 μg M. Butyricum. Mice were monitored and scored daily in a blinded manner as follows: 0=normal, 1=limp tail, 2=impaired righting reflex, 3=hind-limb paresis; 4=complete hind-limb paralysis and 5=moribund/death. 10-14 days after the second relapse the mice were divided into two prospective experimental groups. […]

[4] = test system: hESC-derived pre-OL; experiment: Terminal maturation of hESC-derived pre-oligodendrocytes into MBP+ oligodendrocytes (MBP immunostaining); type: cell-based, human; conditions: pre-OL on laminin
Method: as §1, with “2-4 weeks. […] To block MEK/ERK signaling, PD0325901 (PeproTech Inc, Rocky Hill, NJ) was added freshly every other day to the cells to a concentration of 0.25-0.5 μM. […]” for “2-4 weeks.”

[5] = test system: oligodendrocyte progenitors (OLPs) isolated from mouse cerebral cortex; conditions: cited from earlier work
[6] = test system: oligodendroglial differentiation; conditions: cited from earlier work
[7] = hypoxia 48 hours, then 3 weeks normoxia, vs vehicle

C[C@H](NC(=O)Cc1cc(F)cc(F)c1)C(=O)N[C@H](C(=O)OC(C)(C)C)c1ccccc1 [DAPT, N—[N-(3,5-difluorphenacetyl)-L-alanyl]-S-phenylglycine t-butyl ester]
proportion of MBP+ Tomato+ mature oligodendrocytes [1, 7]: increased differentiation
proportion of MBP+ Tomato+ mature oligodendrocytes ([1]; normoxia, 3 weeks, vs vehicle): did not increase

O=C(NOC[C@H](O)CO)c1ccc(F)c(F)c1Nc1ccc(I)cc1F [PD0325901]
oligodendrocyte differentiation [2]: augment oligodendrocyte differentiation
disease course: mean cumulative score of disease ([3]; 28 days from implantation): significantly milder
disease course: final clinical score at day of termination ([3]; 28 days): significantly milder
proportion of MBP Tomato co-expressing oligodendrocytes ([1]; hypoxia exposed, one week following hypoxia): increased proportion
MBP+ Tomato+-expressing oligodendrocytes ([1]; hypoxia-exposed cultures, 0.25 μM or 0.5 μM for one week): marked increase
branching of processes of MBP+ Tomato+ oligodendrocytes ([1]; hypoxia-exposed cultures, one week): marked increase
number of MBP Tomato co-expressing oligodendrocytes ([1]; hypoxia-exposed, 0.25 μM, one week following hypoxia, vs vehicle (FIG. 11)): increased number
number of MBP Tomato co-expressing oligodendrocytes ([1]; hypoxia-exposed, 0.5 μM, one week following hypoxia, vs vehicle (FIG. 12)): increased number
proportion of MBP+ Tomato+ oligodendrocytes ([1]; normoxia, 0.25 μM or 0.5 μM for one week, vs vehicle): significant increase
number of MBP Tomato co-expressing oligodendrocytes ([1]; normoxia, 0.25 μM, one week, vs vehicle (FIG. 11)): increased number
number of MBP Tomato co-expressing oligodendrocytes ([1]; normoxia, 0.5 μM, one week, vs vehicle (FIG. 12)): increased number
proportion of MBP Tomato co-expressing oligodendrocytes ([1]; normoxia, one week): increased proportion
branching of the processes of MBP+ oligodendrocytes ([1]; normoxia, one week): significantly enhanced
effect on pre-OLs maturation compared with noggin or DAPT ([1]; one week of treatment vs two-three weeks with noggin and/or DAPT): more prominent
culture period after which maturation was obtained [4]: 1 week
branching of processes of MBP+ cells ([4]; 1 week): enhanced branching
proportion of MBP mature oligodendrocytes / maturation into MBP+ cells ([4]; DAPT+noggin 2 weeks, PD0325901 1 week, vs vehicle): highly significant augmentation

Oc1nc(-c2ccc(C(F)(F)F)cc2)nc2c1CSCC2 [XAV939]
differentiation of oligodendrocyte progenitors (OLPs) [5]: promote differentiation

B1: noggin: BMP antagonist (protein, UniProt Q13253 28-232, looked up)
Noggin: QHYLHIRPAPSDNLPLVDLIEHPDPIFDPKEKDLNETLLRSLLGGHYDPGFMATSPPEDRPGGGGGAAGGAEDLAELDQLLRQRPSGAMPSEIKGLEFSEGLAQGKKQRLSKKLRRKLQMWLWSQTFCPVLYAWNDLGSRFWPRYVKVGSCFSKRSCSVPEGMVCKPSKSVHLTVLRWRCQRRGGQRCGWIPIQYPIISECKCSC
oligodendroglial differentiation and maturation [6]: enhance oligodendroglial differentiation and maturation
proportion of MBP+ Tomato+ mature oligodendrocytes [1, 7]: substantial increase
proportion of MBP+ Tomato+ mature oligodendrocytes ([1]; normoxia, 3 weeks, vs vehicle): substantial increase
